Measured values from ChEMBL document CHEMBL1201862, “PubChem BioAssay data set” (2004).
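Growth conditions: 96-well plates. Treatment: test compound, 48 hours, 5 concentrations. Analysis: linear interpolation between bracketing concentrations; unreached endpoints set to highest concentration. GI50 marks 50% less growth.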 Active and inactive are the calls of the source. No stated cut-off is given here; in the data, active = GI50 up to about 1.1 µM and inactive = higher. Where a SMILES comes first, the peptide text is derived from it. The star is where a group is joined. Boc = CC(C)(C)OC(=O)*

Tests used:
Experiment in all cases: growth of human tumour cells (NCI), 48 h
786-0 = tested on: 786-0
ACHN = tested on: ACHN
HCT-116 = tested on: HCT-116
HOP-62 = tested on: HOP-62
HT-29 = tested on: HT-29
M14 = tested on: M14
MCF7 = tested on: MCF7
MDA-MB-435 = tested on: MDA-MB-435
MDA-N = tested on: MDA-N
MOLT-4 = tested on: MOLT-4
Malme-3M = tested on: Malme-3M
NCI-H23 = tested on: NCI-H23
NCI-H460 = tested on: NCI-H460
OVCAR-8 = tested on: OVCAR-8
PC-3 = tested on: PC-3
SK-OV-3 = tested on: SK-OV-3
SNB-75 = tested on: SNB-75
U-251 = tested on: U-251
UACC-62 = tested on: UACC-62
KM12 = tested on: KM12

For `CNC(=O)CNC(=O)C(NC(=O)CNC(=O)C1CCCN1C(=O)C(C)NC(=O)C(NC(=O)OC(C)(C)C)C(C)C)C(C)C` (configuration not stated) (Boc-VAPGVG-NHMe; configuration not given here), the GI50 (786-0) was > 100 µM (inactive), the GI50 (ACHN) was > 100 µM (inactive) and the GI50 (HCT-116) was > 100 µM (inactive). The GI50 (HOP-62) was > 100 µM (inactive), the GI50 (HT-29) was > 100 µM (inactive) and the GI50 (M14) was > 100 µM (inactive). The GI50 (MCF7) was > 100 µM (inactive), the GI50 (MDA-MB-435) was > 100 µM (inactive) and the GI50 (MDA-N) was > 100 µM (inactive). The GI50 (MOLT-4) was > 100 µM (inactive), the GI50 (Malme-3M) was > 100 µM (inactive) and the GI50 (NCI-H23) was > 100 µM (inactive). The GI50 (NCI-H460) was > 100 µM (inactive), the GI50 (OVCAR-8) was > 100 µM (inactive) and the GI50 (PC-3) was > 100 µM (inactive). For the same compound, the GI50 (SK-OV-3) was > 100 µM (inactive), the GI50 (SNB-75) was > 100 µM (inactive) and the GI50 (U-251) was > 100 µM (inactive). The GI50 (UACC-62) was > 100 µM (inactive).

In the case of `C[N+]1(C)C2CC(OC(=O)C(CO)c3ccccc3)CC1C1OC12` (configuration not stated), the GI50 (786-0) is reported as > 100 µM (inactive), the GI50 (ACHN) is reported as > 100 µM (inactive) and the GI50 (HCT-116) is reported as > 100 µM (inactive). The GI50 (HOP-62) was > 100 µM (inactive), the GI50 (HT-29) was > 100 µM (inactive) and the GI50 (KM12) was > 100 µM (inactive). The GI50 (M14) was > 100 µM (inactive), the GI50 (MCF7) was > 100 µM (inactive) and the GI50 (MDA-MB-435) was > 100 µM (inactive). The GI50 (MDA-N) was > 100 µM (inactive), the GI50 (MOLT-4) was > 100 µM (inactive) and the GI50 (Malme-3M) was > 100 µM (inactive). For the same compound, the GI50 (NCI-H23) was > 100 µM (inactive), the GI50 (OVCAR-8) was > 100 µM (inactive) and the GI50 (PC-3) was > 100 µM (inactive). For the same compound, the GI50 (SK-OV-3) was > 100 µM (inactive), the GI50 (SNB-75) was > 100 µM (inactive) and the GI50 (U-251) was > 100 µM (inactive). For the same compound, the GI50 (UACC-62) was > 100 µM (inactive).

In the case of `C=C1C(=O)O[C@@H]2C(=O)[C@@H](C)CCC/C(C)=C/CC[C@@]3(C)O[C@@H]3C[C@@H]12`, the GI50 (786-0) is reported as 21.3 µM (inactive), the GI50 (ACHN) is reported as 36.9 µM (inactive) and the GI50 (HCT-116) is reported as 29.4 µM (inactive). For the same compound, the GI50 (HOP-62) was > 100 µM (inactive), the GI50 (HT-29) was 14.3 µM (inactive) and the GI50 (KM12) was 29.8 µM (inactive). The GI50 (M14) was 54.2 µM (inactive), the GI50 (MCF7) was 36.3 µM (inactive) and the GI50 (MDA-MB-435) was 51.3 µM (inactive). For the same compound, the GI50 (MDA-N) was 34.4 µM (inactive), the GI50 (MOLT-4) was 28.6 µM (inactive) and the GI50 (Malme-3M) was 23 µM (inactive). The GI50 (NCI-H23) was > 100 µM (inactive), the GI50 (OVCAR-8) was 68.5 µM (inactive) and the GI50 (PC-3) was 47 µM (inactive). The GI50 (SK-OV-3) was > 100 µM (inactive), the GI50 (SNB-75) was 0.438 µM (active) and the GI50 (U-251) was 98.9 µM (inactive). For the same compound, the GI50 (UACC-62) was 41.7 µM (inactive).

`O=c1c(Cl)nsnc1Cl` was tested, and the GI50 (786-0) was 1.7 µM (inactive), the GI50 (ACHN) was 6.1 µM (inactive) and the GI50 (HCT-116) was 7.01 µM (inactive). The GI50 (HOP-62) was 18.7 µM (inactive), the GI50 (HT-29) was 24.2 µM (inactive) and the GI50 (KM12) was > 38.7 µM (inactive). For the same compound, the GI50 (M14) was 5.01 µM (inactive), the GI50 (MCF7) was 6.22 µM (inactive) and the GI50 (MDA-MB-435) was 14.2 µM (inactive). For the same compound, the GI50 (MDA-N) was 18.7 µM (inactive), the GI50 (MOLT-4) was 1.9 µM (inactive) and the GI50 (Malme-3M) was 6.38 µM (inactive). The GI50 (NCI-H23) was 23.3 µM (inactive), the GI50 (NCI-H460) was 29.3 µM (inactive) and the GI50 (OVCAR-8) was 36.1 µM (inactive). For the same compound, the GI50 (PC-3) was 16.2 µM (inactive), the GI50 (SK-OV-3) was 19.1 µM (inactive) and the GI50 (SNB-75) was 22.6 µM (inactive). For the same compound, the GI50 (U-251) was 15.1 µM (inactive) and the GI50 (UACC-62) was 11.1 µM (inactive).

With `CC(C)N(CC(=O)O)CC(=O)O` the GI50 (786-0) was > 100 µM (inactive), the GI50 (ACHN) was > 100 µM (inactive) and the GI50 (HCT-116) was > 100 µM (inactive). The GI50 (HOP-62) was > 100 µM (inactive), the GI50 (HT-29) was > 100 µM (inactive) and the GI50 (KM12) was > 100 µM (inactive). For the same compound, the GI50 (M14) was > 100 µM (inactive), the GI50 (MCF7) was > 100 µM (inactive) and the GI50 (MDA-MB-435) was > 100 µM (inactive). For the same compound, the GI50 (MDA-N) was > 100 µM (inactive), the GI50 (MOLT-4) was > 100 µM (inactive) and the GI50 (Malme-3M) was > 100 µM (inactive). The GI50 (NCI-H23) was > 100 µM (inactive), the GI50 (NCI-H460) was > 100 µM (inactive) and the GI50 (OVCAR-8) was > 100 µM (inactive). The GI50 (PC-3) was > 100 µM (inactive), the GI50 (SK-OV-3) was > 100 µM (inactive) and the GI50 (SNB-75) was > 100 µM (inactive). The GI50 (U-251) was > 100 µM (inactive) and the GI50 (UACC-62) was > 100 µM (inactive).

With `COc1ccc(C(=O)/C=C/c2cc(O)c(O)cc2F)c(OC)c1` the GI50 (786-0) was 5.45 µM (inactive), the GI50 (ACHN) was 7.08 µM (inactive) and the GI50 (HCT-116) was 6.97 µM (inactive). For the same compound, the GI50 (HOP-62) was 6.58 µM (inactive), the GI50 (HT-29) was 7.48 µM (inactive) and the GI50 (KM12) was 5.16 µM (inactive). The GI50 (M14) was 10.2 µM (inactive), the GI50 (MCF7) was 0.395 µM (active) and the GI50 (MDA-MB-435) was 2.9 µM (inactive). The GI50 (MDA-N) was 2.54 µM (inactive), the GI50 (MOLT-4) was 3.71 µM (inactive) and the GI50 (Malme-3M) was 7.71 µM (inactive). The GI50 (NCI-H23) was 5.3 µM (inactive), the GI50 (NCI-H460) was 3.99 µM (inactive) and the GI50 (OVCAR-8) was 14.5 µM (inactive). The GI50 (PC-3) was 5.78 µM (inactive), the GI50 (SK-OV-3) was 10.6 µM (inactive) and the GI50 (SNB-75) was 4.67 µM (inactive). For the same compound, the GI50 (U-251) was 5.45 µM (inactive) and the GI50 (UACC-62) was 10.9 µM (inactive).

In the case of `CC(=O)OCC1OC(n2c(N)c(C#N)c(-c3cccc(Cl)c3)c(C#N)c2=S)C(OC(C)=O)C(OC(C)=O)C1OC(C)=O` (configuration not stated), the GI50 (786-0) is reported as 22.2 µM (inactive), the GI50 (ACHN) is reported as 29.1 µM (inactive) and the GI50 (HCT-116) is reported as 22.4 µM (inactive). For the same compound, the GI50 (HOP-62) was 23.3 µM (inactive), the GI50 (HT-29) was 24.5 µM (inactive) and the GI50 (KM12) was 15.5 µM (inactive). For the same compound, the GI50 (M14) was 22.4 µM (inactive), the GI50 (MCF7) was 21.5 µM (inactive) and the GI50 (MDA-MB-435) was 15.4 µM (inactive). The GI50 (MDA-N) was 19.1 µM (inactive), the GI50 (MOLT-4) was 11.9 µM (inactive) and the GI50 (Malme-3M) was 25.2 µM (inactive). The GI50 (NCI-H23) was 24.2 µM (inactive), the GI50 (NCI-H460) was 24.8 µM (inactive) and the GI50 (OVCAR-8) was 14.9 µM (inactive). The GI50 (PC-3) was 24.9 µM (inactive), the GI50 (SK-OV-3) was 20.7 µM (inactive) and the GI50 (SNB-75) was 22.2 µM (inactive). The GI50 (U-251) was 22.8 µM (inactive) and the GI50 (UACC-62) was 26.9 µM (inactive).
